Measured values taken from ChEMBL document CHEMBL1158818, “Alkaloids from the sponge Monanchora unguifera” (J Nat Prod, 2005).

Experiments:
Type in all cases: functional, cell-based
HT-29 = assay: Cytotoxicity against human HT-29 cells
P388 = assay: Cytotoxicity against mouse P388 cells
SK-MEL-28 = assay: Cytotoxicity against human SK-MEL-28 cells
DU-145 = assay: Cytotoxicity against human DU145 cells
A549 = assay: Cytotoxicity against human A549 cells

Measured: IC50

CCCCCCC[C@@H]1C[C@@H]2CCC3=C(C(=O)OCCCCCCC[C@@H]4C[C@@H]5CCC6=C(C(=O)OCCCCNC(=N)N)C(C)N=C(N4)N65)C(C)N=C(N1)N32 (stereo not given in full) [BATZELLADINE J]
> 1 µg/mL: HT-29 | P388 | SK-MEL-28 | DU-145 | A549
